Data published in patent publication US20140259191A1, “FISH ANESTHETIC AND METHOD” (AQUA-MOR TECHNOLOGIES LTD., priority 2011, published 2014).

System: common carp
Test: Five-hour sedation of common carp, linalool versus 2-phenoxyethanol
Format: in vivo
Conditions: linalool 40 ppm, 2-PE 200 ppm; for Number of fish exhibiting loss of upright position: 26° C.
Protocol: 2-Phenoxyethanol (2-PE) is used to sedate fish in vaccinations procedures for relatively long periods of time (3 hours). 35 common carp were placed in each of two 60-liter tanks containing water at 26° C. Into one tank was added linalool (in a formulation as described in Example 28) to a concentration of 40 ppm; into the other tank was added 2-PE to a concentration of 200 ppm. Sedation of fish was determined by observation of loss of upright position, operculum movement and response to stimulus (handling). Total exposure time was five hours, at the end of which the fish were transferred 60-liter recovery tanks containing untreated water.

SMILES: OCCOc1ccccc1 [2-phenoxyethanol, 2-Phenoxyethanol, reference compound]
- Number of fish exhibiting loss of upright position (35 common carp per tank, time 10:30 (start), aeration): 0
- Number of fish exhibiting loss of upright position (35 common carp per tank, time 11:00 (start 10:30), no aeration): 1
- Number of fish exhibiting loss of upright position (35 common carp per tank, time 11:40 (start 10:30), no aeration): 2
- Number of fish exhibiting loss of upright position (35 common carp per tank, time 12:35 (start 10:30), no aeration): 2
- Number of fish exhibiting loss of upright position (35 common carp per tank, time 13:35 (start 10:30), no aeration): 2
- Number of fish exhibiting loss of upright position (35 common carp per tank, time 14:30 (start 10:30), aeration): 2
- Number of fish exhibiting loss of upright position (35 common carp per tank, time 15:30 (start 10:30), aeration): None
- survival at transfer to recovery tank (35 common carp per tank, after five hours exposure): All alive
- reflex response over the 5 hours of exposure (common carp): reduced substantially from the beginning of the trial and increased with the passage of time until the end of the trial
- sedative effect between 3 and 5 hours of exposure (common carp): reduced
- recovery after placement in a recovery tank (common carp, after five hours exposure): recovered quickly in few minutes and did not show signs of stress
- response to external stimulation during the first 3 hours (common carp, sedation levels enabled handling): did not respond to external stimulation
